Measured values from patent US20230355622A1, “METHODS OF CHEMOVACCINATION AGAINST PLASMODIUM INFECTIONS” (Merck Sharp & Dohme LLC, priority 2020, published 2023).

What was measured:
[1] = system: PbmCherryLuci salivary gland sporozoites in HepG2 human hepatoma cells; test: In vitro infection assay: immune serum inhibition of sporozoite infection of HepG2 cells (FIG. 3); assay type: cell-based, Plasmodium berghei; conditions: serum of five BALB/c mice immunised ten months prior, 1 in 20 dilution, 48 h, versus naive serum
Method: To initiate the in vitro infection assay, 30,000 HepG2 human hepatoma cells were seeded into a 96-well plate format the day before infection. The day of infection, freshly dissected PbmCherryLuci salivary gland sporozoites were incubated with a 1 in 20 dilution of either naïve BALB/c serum (from n=5 mice) or immune serum (from n=5 mice) in culture media and added to HepG2 wells in technical triplicate. Serum samples were not pooled, so the response from five individual mice was analysed independently. Forty-eight hours after infection the infected cells were fixed with 4% formaldehyde and imaged using an Opera Phenix High Content Imager (PerkinElmer). The number of parasites in each well was counted using the mCherry reporter expressed by these parasites, the average number of parasites between the technical triplicates averaged for each serum sample, and the average for each mouse presented.

PMIX = test: Cleavage of PMIX substrates RAP1 and ASP in parasite extracts; assay type: cell-based, P. falciparum
Method: To confirm that Example 1A was a dual inhibitor of PMIX and PMX function, the ability of this compound to inhibit cleavage of the known PMIX substrate Rhoptry Associated Protein 1 (RAPI) in parasite extracts was tested (Pino et al., 2017). RAP1 is a merozoite rhoptry protein that is localized to the parasitophorous vacuole after invasion and processed by both PMIX and SUB1 (Pino et al., 2017). […] RAP1 was not released into the parasite supernatant because it was deposited in the parasitophorous vacuole during the invasion process (Baldi, D., Andrews, K., Waller, R., Roos, D., Howard, R., Crabb, B. and Cowman, A. (2000)). RAP1 controls rhoptry targeting of RAP2 in the malaria parasite Plasmodium falciparum. Embo Journal 19, 2435-2443.

[2] = system: PbmCherryLuci sporozoites; test: Inhibition of liver to blood transition in C57BL/6 mice (FIG. 8); assay type: in vivo, Plasmodium berghei; conditions: oral gavage during liver infection
Method: 40,000 PbmCherryLuci sporozoites (or the indicated number of sporozoites) were inoculated i.v. and compounds were administered by oral gavage at indicated time points during liver infection. Liver infection levels and egress of parasites from the liver were measured by bioluminescence signal from the parasites using an In Vivo Imaging System (IVIS, Perkin Elmer) at the peak of liver infection (52 hours post infection, hpi), during liver egress (55 hpi) as well as during the first round of blood infection (65 hpi). Initiation of blood infection was also measured by flow cytometry at 65 hpi using the mCherry reporter to determine the parasitemia of this first round of blood infection. These analyses allowed quantification of the efficacy of drug killing of parasites in the liver (52 hpi), preventing their egress from the liver (55 hpi) or preventing their successful infection of the blood (65 hpi). Mice were monitored by giemsa stained thin blood smears for the presence of parasites in the blood for 30 days post infection. If no blood infection was seen during the subsequent 30 days, mice were declared cured of malaria infection.
C57BL/6 mice were administered Example 1A or Example 75A as described in the general experimental procedure.

## CCC1(CC)CC(=O)N(C2CCOc3ccc(C(=O)N[C@H]4CC(C)(C)Oc5ccccc54)cc32)C(=N)N1 (stereo partly drawn) [Example 1A, 4-(4,4-diethyl-2-imino-6-oxotetrahydropyrimidin-1(2H)-yl)-N—((S)-2,2-dimethylchroman-4-yl)chroman-6-carboxamide]
[1]
  inhibition of HepG2 infection by immune serum: inhibition of infection using the serum from each of the five immunised mice
PMIX; treated parasites/merozoites, processed forms p82 and p69, unprocessed p87
  RAP1 processing by PMIX and SUB1: only the unprocessed p87 form of RAP1 was present
PMIX; treated parasites, p47 processed, p87 full-length
  Apical Sushi Protein (ASP) processing by PMIX: cleavage event was inhibited
[2]
  infection of the blood: completely prevented infection of the blood in all mice
